Data taken from patent publication US20250186374A1 (priority 2022, published 2025).
pEC50, pIC50, pKd: −log10 of the molar value. Entries after “also recorded” stand apart in the source; their conditions may differ. Like-named read-outs stand apart in the source and are kept apart here.

Tests used:
SARS-CoV-2 [1] = assay: microbe, parasite or virus in culture; type: cell-based
SARS-CoV-2 3CLpro [2] = target: T1, SARS-CoV-2 3CLpro (Severe acute respiratory syndrome coronavirus 2, UniProt P0DTD1); assay: biochemical; type: biochemical; conditions: for inhibitory activity in library screen: compound concentration of 100 μM
SARS-CoV-2 3CLpro [3] = target: T1, SARS-CoV-2 3CLpro; assay: Surface plasmon resonance binding to immobilized 3CLpro; conditions: 0.164-100 μM, 25° C.
SARS-CoV-2 3CLpro [4] = target: T1, SARS-CoV-2 3CLpro; assay: Inhibition of cleavage of TriPro substrate protein, SDS-PAGE; type: biochemical; conditions: 0.8 μM 3CLpro
SARS-CoV-2 3CLpro [5] = target: T1, SARS-CoV-2 3CLpro; assay: Enzyme kinetics, Lineweaver-Burk plots; type: biochemical; conditions: for Inhibition Type: Michaelis-Menten kinetics; for effect on Vmax of 3CLpro: compared to the DMSO control, 5 μM or 10 μM inhibitor
SARS-CoV-2 [6] = assay: Clinical examples 1-3, treatment of COVID-19 / SARS-CoV-2 positive subjects; type: in vivo
From the text: Example 1: The following example describes treatment strategies for COVID-19 involving oral administration of an antiviral composition.
A physician diagnoses a patient with COVID-19. The patient is experiencing mild symptoms. […] The patient is to take the tablet once a day for one week. The patient is highly responsive and their symptoms go away after 2 days.
Example 2: The following example describes treatment strategies for intravenous administration of an antiviral composition.
A diabetic patient is hospitalized with severe COVID-19. […] The medication is added to an IV solution and delivered intravenously, twice a day for three days. The patient is highly responsive and experiences a reduction in their symptoms during the initial treatment period.
A subject tests positive for SARS-CoV-2 but is asymptomatic. […] The subject sprays the inside of their nose once a day for 5 days. The subject remains asymptomatic.

SARS-CoV-2 3CLpro [7] = target: T1, SARS-CoV-2 3CLpro; assay: Microscale thermophoresis ligand binding; conditions: 10 nM labeled 3CLpro; read-out: KD (MST)
From the text: Monolith NT.115 Microscale Thermophoresis (MST) instrument (NanoTemper Technologies) was used for this assay. Monolith protein labeling kit RED-NHS was purchased from NanoTemper Technologies. Briefly, 3CLpro protein was labeled using RED-NHS labelling kit (NanoTemper) following the manufacturer's instructions. […] The assay was read in 20% excitation power and medium MST power.

SARS-CoV-2 3CLpro [8] = target: T1, SARS-CoV-2 3CLpro; conditions: at 50 μM concentration; cited from earlier work
SARS-CoV = conditions: cited from earlier work
SARS-CoV 3CLpro = SARS-CoV 3CLpro (Severe acute respiratory syndrome coronavirus, UniProt P0C6X7); conditions: cited from earlier work
[9] = Severe acute respiratory syndrome coronavirus 2, Table 2 and text, SARS-CoV-2 viral replication, cell-based antiviral assay
[10] = Severe acute respiratory syndrome coronavirus 2, 48 h
[11] = FRET peptide substrate, 200 nM 3CLpro, read-out: SARS-CoV-2 3CLpro IC50

Work on CC(C)(C)NC(=O)N[C@H](C(=O)N1C[C@H]2[C@@H]([C@H]1C(=O)NC(CC1CCC1)C(=O)C(N)=O)C2(C)C)C(C)(C)C (some centres unmarked) [Boceprevir, boceprevir, reference compound] yielded a pEC50 (SARS-CoV-2 [1]; [9]) of 4.81.

O=C(Nc1ccc([N+](=O)[O-])cc1Cl)c1cccc([N+](=O)[O-])c1O [JMX0207] showed a pEC50 (SARS-CoV-2 [1]; [10]) of 5.91 and a CC50 at 48 h (in vitro) of 13.2 µM.

For CC(C)[C@H](NC(=O)c1cc(Cl)ccc1O)C(=O)Nc1ccc([N+](=O)[O-])cc1Cl [JMX0281], the pEC50 (SARS-CoV-2 [1]; [10]) was 5.68 and the CC50 at 48 h (in vitro) was 8.32 µM.

Compound O=C(NC(Cc1ccccc1)C(=O)Nc1ccc([N+](=O)[O-])cc1Cl)c1cc(Cl)ccc1O (centres unmarked) [JMX0285] has a pEC50 (SARS-CoV-2 [1]; [10]) of 5.52 and a CC50 at 48 h (in vitro) of 6.13 µM.

With Cl.NCCOc1ccc(Cl)cc1C(=O)NCC(=O)Nc1ccc([N+](=O)[O-])cc1Cl [JMX0286, 2-(2-Aminoethoxy)-5-chloro-N-(2-((2-chloro-4-nitrophenyl)amino)-2-oxoethyl)benzamide hydrochloride] the pEC50 (SARS-CoV-2 [1]; [10]) was 5.65, the pIC50 (SARS-CoV-2 3CLpro [2]; [11]) was 5.32 and the “inhibitory activity in library screen” value (SARS-CoV-2 3CLpro [2]) was “prominent inhibitory activity”. For the same compound, the pKd (SARS-CoV-2 3CLpro [3]; read-out: KD (SPR, steady-state affinity model)) was 5.01, the “inhibition of cleavage of the TriPro substrate protein” value (SARS-CoV-2 3CLpro [4]; hydrochloride) was “inhibited the cleavage of the TriPro substrate protein in a dose dependent manner; also recorded: inhibit the digestion of protein substrates in a dose dependent manner” and the “Inhibition Type” value (SARS-CoV-2 3CLpro [5]; hydrochloride) was “non-competitive inhibition mechanism”. The “effect on Vmax of 3CLpro” value (SARS-CoV-2 3CLpro [5]) was “reduced the Vmax values”, the side effects (SARS-CoV-2 [6]; Example 1: oral tablet 50 mg once a day for one week) was “No side effects are reported” and the clinical outcome (SARS-CoV-2 [6]; Example 1: oral tablet 50 mg once a day for one week, mild COVID-19) was “completely recovers”. The CC50 (A549 and Vero E6 cells; Table 1, cell line not given) was 3.78 µM.

In the case of CC(C)(C)OC(=O)NCCOc1ccc(Cl)cc1C(=O)NCC(=O)Nc1ccc([N+](=O)[O-])cc1Cl [JMX0301, tert-Butyl(2-(4-chloro-2-((2-((2-chloro-4-nitrophenyl)amino)-2-oxoethyl)carbamoyl)phenoxy)ethyl)carbamate], the “EC50 (μM)” value (SARS-CoV-2 [1]; Table 2, SARS-CoV-2 viral replication, cell-based antiviral assay) was “No Dose”, the pIC50 (SARS-CoV-2 3CLpro [2]; [11]) was 5.35 and the “inhibitory activity in library screen” value (SARS-CoV-2 3CLpro [2]) was “prominent inhibitory activity”. For the same compound, the “KD (SPR, steady-state affinity model)” value (SARS-CoV-2 3CLpro [3]) was “did not show binding”, the pKd (SARS-CoV-2 3CLpro [7]) was 4.47 and the “inhibition of cleavage of the TriPro substrate protein” value (SARS-CoV-2 3CLpro [4]) was “inhibited the cleavage of the TriPro substrate protein in a dose dependent manner; also recorded: inhibit the digestion of protein substrates in a dose dependent manner”. For the same compound, the “Inhibition Type” value (SARS-CoV-2 3CLpro [5]) was “non-competitive inhibition mechanism”, the “effect on Vmax of 3CLpro” value (SARS-CoV-2 3CLpro [5]) was “reduced the Vmax values” and the clinical outcome (SARS-CoV-2 [6]; Example 2: 100 mg with remdesivir 100 mg intravenously twice a day for three days, then 50 mg tablet, severe COVID-19) was “completely recovers”. The side effects (SARS-CoV-2 [6]; Example 2: intravenous with remdesivir, then tablet) was “No side effects are reported”.

In the case of O=C(Nc1ccc(C(F)(F)F)cc1Cl)c1cc(Cl)ccc1O [JMX0308], the “EC50 value (strong inhibition of SARS-CoV-2 virus)” value (SARS-CoV-2 [1]) was “sub-micromolar range” and the pEC50 (SARS-CoV-2 [1]; [10]) was 6.09.

With O=C(Nc1ccc(C(F)(F)F)cc1Cl)c1cccc([N+](=O)[O-])c1O [JMX0310, N-(2-Chloro-4-(trifluoromethyl)phenyl)-2-hydroxy-3-nitrobenzamide] the pEC50 (SARS-CoV-2 [1]; [10]) was 5.62 and the CC50 (A549 and Vero E6 cells; Table 1, cell line not given) was 10.1 µM.

O=C(Nc1cc(F)cc(C(F)(F)F)c1)c1cc(Cl)ccc1O [JMX0312] showed a pEC50 (SARS-CoV-2 [1]; [10]) of 5.95 and a CC50 at 48 h (in vitro) of 1.97 µM.

O=C(Nc1cc(F)cc(C(F)(F)F)c1)c1cccc([N+](=O)[O-])c1O [JMX0317, N-(3-Fluoro-5-(trifluoromethyl)phenyl)-2-hydroxy-3-nitrobenzamide] gave a pEC50 (SARS-CoV-2 [1]; [10]) of 5.40 and a CC50 (A549 and Vero E6 cells; Table 1, cell line not given) of 11.7 µM.

Compound O=C(Nc1ccc(F)c(F)c1)c1cc(Cl)ccc1O [JMX0321] has a pEC50 (SARS-CoV-2 [1]; [10]) of 5.93 and a CC50 at 48 h (in vitro) of 3.76 µM.

In the case of O=C(Nc1cc(C(F)(F)F)cc(C(F)(F)F)c1)c1cc(Cl)ccc1O [JMX0325], the “EC50 value (strong inhibition of SARS-CoV-2 virus)” value (SARS-CoV-2 [1]) was “sub-micromolar range”, the pEC50 (SARS-CoV-2 [1]; [10]) was 6.91 and the CC50 at 48 h (in vitro) was 1.81 µM.

In the case of O=C(Nc1cc(C(F)(F)F)cc(C(F)(F)F)c1)c1cccc([N+](=O)[O-])c1O [JMX0330, N-(3,5-Bis(trifluoromethyl)phenyl)-2-hydroxy-3-nitrobenzamide], the “EC50 value (strong inhibition of SARS-CoV-2 virus)” value (SARS-CoV-2 [1]) was “sub-micromolar range”, the pEC50 (SARS-CoV-2 [1]; [10]) was 6.30 and the CC50 (A549 and Vero E6 cells; Table 1, cell line not given) was 10.2 µM.

CC1(Nc2ccc(NC(=O)c3cc(Cl)ccc3O)c(Cl)c2)CCCC1 [JMX0510-2] showed a pEC50 (SARS-CoV-2 [1]) of 5.31 and a CC50 (A549 and Vero E6 cells) of 11.5 µM.

CC(C)C[C@H](NC(=O)c1cc(Cl)ccc1O)C(=O)Nc1ccc([N+](=O)[O-])cc1Cl [JMX0671] gave a pEC50 (SARS-CoV-2 [1]; [10]) of 5.81 and a CC50 at 48 h (in vitro) of 8.03 µM.

For CC(C)[C@H](NC(=O)c1cc(Cl)ccc1O)C(=O)Nc1ccc(C(F)(F)F)cc1Cl [JMX0672], the pEC50 (SARS-CoV-2 [1]; [10]) was 5.72 and the CC50 at 48 h (in vitro) was 8.34 µM.

With CCC(C)[C@H](NC(=O)c1cc(Cl)ccc1O)C(=O)Nc1ccc([N+](=O)[O-])cc1Cl (some centres unmarked) [JMX0673] the pEC50 (SARS-CoV-2 [1]; [10]) was 5.76 and the CC50 at 48 h (in vitro) was 5.2 µM.

With C[C@H](NC(=O)c1cc(Cl)ccc1O)C(=O)Nc1ccc([N+](=O)[O-])cc1Cl [JMX0674] the pEC50 (SARS-CoV-2 [1]; [10]) was 5.01 and the CC50 at 48 h (in vitro) was > 10 µM.

CC(C)[C@H](NC(=O)c1cc(Cl)ccc1O)C(=O)Nc1cc(C(F)(F)F)cc(C(F)(F)F)c1 [JMX0679] showed a pEC50 (SARS-CoV-2 [1]; [10]) of 5.60 and a CC50 at 48 h (in vitro) of 7.14 µM.

CC(C)[C@H](NC(=O)c1cc(Cl)ccc1O)C(=O)Nc1cc(F)cc(C(F)(F)F)c1 [JMX0680] gave a pEC50 (SARS-CoV-2 [1]; [10]) of 5.34 and a CC50 at 48 h (in vitro) of 10.1 µM.

For CC(C)[C@H](NC(=O)c1cc(Cl)ccc1O)C(=O)Nc1ccc(F)c(F)c1 [JMX0681], the pEC50 (SARS-CoV-2 [1]; [10]) was 5.01 and the CC50 at 48 h (in vitro) was > 10 µM.

For O=C(Nc1cc(F)cc(C(F)(F)F)c1)c1ccc(Cl)cc1O [JMX0887], the “EC50 value (strong inhibition of SARS-CoV-2 virus)” value (SARS-CoV-2 [1]) was “sub-micromolar range”, the pEC50 (SARS-CoV-2 [1]; [10]) was 6.04 and the CC50 at 48 h (in vitro) was 4.18 µM.

For O=C(Nc1ccc([N+](=O)[O-])cc1)c1cc(Cl)ccc1O [JMX0895], the “EC50 value (strong inhibition of SARS-CoV-2 virus)” value (SARS-CoV-2 [1]) was “sub-micromolar range” and the pEC50 (SARS-CoV-2 [1]; [10]) was 6.18.

In the case of O=C(Nc1ccc([N+](=O)[O-])c(Cl)c1)c1cc(Cl)ccc1O [JMX0941], the pEC50 (SARS-CoV-2 [1]; [10]) was 5.76, the pEC50 (SARS-CoV-2 [1]; [9]) was 5.77 and the “inhibitory activity in library screen” value (SARS-CoV-2 3CLpro [2]) was “prominent inhibitory activity”. The “inhibition of cleavage of the TriPro substrate protein” value (SARS-CoV-2 3CLpro [4]) was “inhibited the cleavage of the TriPro substrate protein in a dose dependent manner; also recorded: inhibit the digestion of protein substrates in a dose dependent manner”, the “Inhibition Type” value (SARS-CoV-2 3CLpro [5]) was “non-competitive inhibition mechanism” and the “effect on Vmax of 3CLpro” value (SARS-CoV-2 3CLpro [5]) was “reduced the Vmax values”. For the same compound, the side effects (SARS-CoV-2 [6]; Example 3: intranasal spray 10 mg once a day for 5 days) was “No side effects are reported” and the “SARS-CoV-2 test on the 6th day” value (SARS-CoV-2 [6]; Example 3: intranasal spray 10 mg once a day for 5 days, asymptomatic subject) was “negative for SARS-CoV-2”.

In the case of O=C(Nc1ccc([N+](=O)[O-])cc1Cl)c1cc(Cl)ccc1O [Niclosamide, niclosamide], the pIC50 (SARS-CoV-2 3CLpro [2]) is listed as < 4.30, the “inhibition of the SARS-CoV-2 3CLpro” value (SARS-CoV-2 3CLpro [8]) is listed as “does not inhibit” and the pEC50 (SARS-CoV; Vero E6 cells, read-out: EC50, SARS-CoV replication) is listed as > 7.00. The “concentration suppressing the cytopathic effect (CPE) of SARS-CoV” value (SARS-CoV; as low as) was 1 µM and the “inhibitory activity against SARS-CoV 3CLpro” value (SARS-CoV 3CLpro) was “no obvious inhibitory activity”.
